From patent US20250206758A1, “SUBSTITUTED BRIDGED RING INHIBITOR, PREPARATION METHOD THEREFOR AND APPLICATION THEREOF” (SUZHOU ZELGEN BIOPHARMACEUTICALS CO., LTD., priority 2022, published 2025)

How the values were obtained:
GP2D = assay: Cell proliferation inhibition, GP2D (CellTiter-Glo 3D, 7 days); format: cell-based; conditions: 168 h
Description: (§1) • (a) Resuscitating cells in T75 cell culture flask: • (b) When the cell confluence reaches 80-90%, subculturing the cells.
(§2) The diluted test compound was added to a 384-well cell culture plate with a nanoliter pipetting system, and duplicate wells were set up. An equal volume of culture medium was added to the positive control group; and an equal volume of DMSO was added to the negative control group, then centrifugation was conducted at 1000 rpm for 1 min at room temperature.
(§3) Cells were inoculated into a) 384-well culture plate, with an equal volume of cells added to the negative control group, and only an equal volume of culture medium added to the positive control group. The plate was centrifuged at 1000 rpm for 1 min at room temperature, and the final DMSO concentration of the compound was 0.5% at last. The plate was placed in a 37° C., 5% CO2 constant temperature incubator for 7 days.
(§4) 20 μL/well of CellTiter-Glo® 3D to b) was added to 384-well cell culture plate, and the plate was shook at 320 rpm for 20 min in the dark, and incubated at room temperature in the dark for 2 hrs.
(§5) The luminescence value was read using an Envision multi-functional microplate reader.
(§6) The inhibition rate (IR) of the test compound was calculated using the following formula: IR (%)=(1−(RLU compound−RLU blank control)/(RLU meidum control−RLU blank control))*100%. The inhibition rates of different concentrations of compounds were calculated in Excel, and then the inhibition curves were plotted and the related parameters (including the minimum inhibition rate, maximum inhibition rate and IC50) were calculated using GraphPad Prism software.

AsPC-1 = assay: Cell proliferation inhibition, AsPC-1 (CellTiter-Glo 3D, 7 days); format: cell-based; conditions: Homo sapiens, ASPC1, 168 h; AsPC-1, 7 days
Description: as §1, §2, §3, §4, §5, §6

Row | Structure (SMILES) | IC50 (GP2D) | IC50 (AsPC-1)
1 | COc1c(-c2c(F)c(N)cc(C)c2C(F)(F)F)ncc2c(N3C[C@H]4CC[C@@H](C3)N4)nc(OC[C@@]34CCCN3C[C@@]3(CC3(F)F)C4)nc12 [Example 30, 3-(4-((1R,5S)-3,8-diazabicyclo[3.2.1]octan-3-yl)-2-(((1S,7a'S)-2,2-difluorodihydro-1′H,3′H-spiro[cyclopropan-1,2′-pyrrolizin]-7a′(5′H)-yl)methoxy)-8-methoxypyridino[4,3-d]pyrimidin-7-yl)-2-fluoro-5-methyl-4-(trifluoromethyl)aniline] | > 100 nM | > 1000 nM
2 | C#Cc1c(F)ccc2cc(O)cc(-c3ncc4c(N5C[C@H]6CC[C@@H](C5)N6)nc(OC[C@]56CCC7(CC7)N5C[C@@H](F)C6)nc4c3F)c12 (relative stereo) [Example 12A, 4-(4-((1R,5S)-3,8-diazabicyclo[3.2.1]octan-3-yl)-8-fluoro-2-(((trans)-6′-fluorotetrahydrospiro[cyclopropan-1,3′-pyrrolizin]-7a′(5′H)-yl)methoxy)pyridino[4,3-d]pyrimidin-7-yl)-5-ethynyl-6-fluoronaphthalen-2-ol] | 3.07 nM | 24.8 nM
3 | Nc1cc(-c2ncc3c(N4C[C@H]5CC[C@@H](C4)N5)nc(OC[C@@]45CCCN4C[C@@]4(CC4(F)F)C5)nc3c2F)c(Cl)c(C(F)(F)F)c1 [Example 45, 3-(4-((1R,5S)-3,8-diazabicyclo[3.2.1]octan-3-yl)-2-(((1S,7a'S)-2,2-difluorodihydro-1′H,3′H-spiro[cyclopropan-1,2′-pyrrolizin]-7a′(5′H)-yl)methoxy)-8-fluoropyridino[4,3-d]pyrimidin-7-yl)-4-chloro-5-(trifluoromethyl)aniline] | 60 nM | 896 nM
4 | C#Cc1c(F)ccc2cc(O)cc(-c3ncc4c(N5CC6CCC(C5)N6)nc(OCC56CCCN5C5(CC5)CC6)nc4c3F)c12 [Example 11, 4-(4-((1R,5S)-3,8-diazabicyclo[3.2.1]octan-3-yl)-8-fluoro-2-((tetrahydrospiro[cyclopropan-1,3′-pyrrolizin]-7a′(5′H)-yl)methoxy)pyridino[4,3d]pyrimidin-7-yl)-5-ethynyl-6-fluoronaphthalen-2-ol] | 3.01 nM | 38.2 nM
5 | Oc1cc(Cl)c(C(F)(F)F)c(-c2ncc3c(N4CC5CCC(C4)N5)nc(OC[C@@]45CCCN4C[C@@]4(CC4(F)F)C5)nc3c2F)c1 [Example 40] | 14 nM | 51.6 nM
6 | Cc1cc(N)nc(-c2ncc3c(N4CC5CCC(C4)N5)nc(OC[C@@]45CCCN4C[C@@]4(CC4(F)F)C5)nc3c2F)c1C(F)(F)F [Example 18, 6-(4-((1R,5S)-3,8-diazabicyclo[3.2.1]octan-3-yl)-2-(((trans)-2,2-difluorodihydro-1′H,3′H-spiro[cyclopropan-1,2′-pyrrolizin]-7a′(5′H)-yl)methoxy)-8-fluoropyridino[4,3d]pyrimidin-7-yl)-4-methyl-5-(trifluoromethyl)pyridin-2-amine] | 9.83 nM | 307 nM
7 | C#Cc1c(F)ccc2cc(O)cc(-c3ncc4c(N5C[C@H]6CC[C@@H](C5)N6)nc(OC[C@@]56CCC7(CC7)N5C[C@@H](F)C6)nc4c3F)c12 (relative stereo) [Example 12B, 4-(4-((1R,5S)-3,8-diazabicyclo[3.2.1]octan-3-yl)-8-fluoro-2-(((cis)-6′-fluorotetrahydrospiro[cyclopropan-1,3′-pyrrolizin]-7a′(5′H)-yl)methoxy)pyridino[4,3-d]pyrimidin-7-yl)-5-ethynyl-6-fluoronaphthalen-2-ol] | 29.6 nM | 390 nM
8 | Fc1c(-c2c(C(F)(F)F)ccc3[nH]ncc23)ncc2c(N3CC4CCC(C3)N4)nc(OC[C@@]34CCCN3C[C@@]3(CC3(F)F)C4)nc12 [Example 33, (1S,7a'S)-7a′-(((4-((1R,5S)-3,8-diazabicyclo[3.2.1]octan-3-yl)-8-fluoro-7-(5-(trifluoromethyl)-1H-indazol-4-yl)pyridino[4,3-d]pyrimidin-2-yl)oxy)methyl)-2,2-bifluorotetrahydro-1′H,3′H-spiro[cyclopropan-1,2′-pyrrolizin]] | > 100 nM | > 1000 nM
